Biological target: T1, RING1B-BMI1 (Homo sapiens, UniProt Q99496)
T1 sequence (Q99496 1-336): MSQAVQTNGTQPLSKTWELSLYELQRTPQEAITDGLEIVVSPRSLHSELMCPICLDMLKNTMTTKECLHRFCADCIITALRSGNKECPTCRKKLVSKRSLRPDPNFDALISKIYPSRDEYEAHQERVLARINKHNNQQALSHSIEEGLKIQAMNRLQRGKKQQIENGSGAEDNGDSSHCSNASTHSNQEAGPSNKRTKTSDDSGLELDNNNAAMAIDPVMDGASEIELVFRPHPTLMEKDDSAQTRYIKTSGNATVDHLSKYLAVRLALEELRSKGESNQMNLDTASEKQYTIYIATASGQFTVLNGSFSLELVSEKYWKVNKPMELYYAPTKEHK
T1 sequence (P35226 1-326 partner): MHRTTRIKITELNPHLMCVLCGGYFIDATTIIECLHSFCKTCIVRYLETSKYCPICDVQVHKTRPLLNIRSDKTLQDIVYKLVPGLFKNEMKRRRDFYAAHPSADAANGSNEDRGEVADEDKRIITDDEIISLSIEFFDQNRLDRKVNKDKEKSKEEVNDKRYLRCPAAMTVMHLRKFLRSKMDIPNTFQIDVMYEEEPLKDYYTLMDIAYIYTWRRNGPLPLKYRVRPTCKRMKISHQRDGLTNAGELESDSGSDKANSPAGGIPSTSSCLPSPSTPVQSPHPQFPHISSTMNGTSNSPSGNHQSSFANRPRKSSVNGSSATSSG
Assay: KD classes of Table A (direct binding to Ring1B-Bmi1)
Details: class given in Table A

SMILES | Kd
COc1cc(-c2c(C(=O)O)[nH]c(-c3cc(F)cc4[nH]ccc34)c2C(C)C)c2ccn(CC(N)=O)c2c1 [compound 175] | < 20 µM
COCCC(=O)NCCn1ccc2c(-c3c(C(=O)O)[nH]c(-c4cc(F)cc5[nH]ccc45)c3C(C)C)cc(OC)cc21 [compound 176] | < 20 µM
COc1cc(-c2c(C(=O)O)[nH]c(-c3cc(F)cc4[nH]ccc34)c2C(C)C)c2ccn(CCNC(=O)c3nccs3)c2c1 [compound 177, 5-(6-fluoro-1H-indol-4-yl)-4-isopropyl-3-(6-methoxy-1-(2-(thiazole-2-carboxamido)ethyl)-1H-indol-4-yl)-1H-pyrrole-2-carboxylic acid] | < 20 µM
COc1cc(-c2c(C(=O)O)[nH]c(-c3cc(F)cc4[nH]ccc34)c2C(C)C)c2ccn(CCNC(=O)Cc3cscn3)c2c1 [compound 178] | < 20 µM
COc1cc(-c2c(C(=O)O)[nH]c(-c3cc(F)cc4[nH]ccc34)c2C(C)C)c2ccn(CC(=O)NCc3nc(C)cs3)c2c1 [compound 179] | < 20 µM
CCCC(=O)NCCn1ccc2c(-c3c(C(=O)O)[nH]c(-c4cc(F)cc5[nH]ccc45)c3C(C)C)cc(OC)cc21 [compound 180] | < 20 µM
CC(C)c1c(-c2ccc3[nH]ccc3c2)[nH]c(C(=O)O)c1-c1c(Cl)ccc2[nH]ccc12 [compound 181] | < 20 µM
CC(C)c1c(-c2ccc3cc[nH]c3c2)[nH]c(C(=O)O)c1-c1c(Cl)ccc2[nH]ccc12 [compound 182, 3-(5-chloro-1H-indol-4-yl)-5-(1H-indol-6-yl)-4-isopropyl-1H-pyrrole-2-carboxylic acid] | < 20 µM
COc1cc(-c2c(C(=O)O)[nH]c(-c3cc(F)cc4[nH]ccc34)c2C(C)C)c2c(C)c[nH]c2c1 [compound 183] | < 20 µM
CCn1ccc2cc(-c3[nH]c(C(=O)O)c(-c4c(Cl)ccc5[nH]ccc45)c3C(C)C)ccc21 [compound 184] | < 20 µM
CC(C)c1c(-c2cc(F)cc3cc[nH]c23)[nH]c(C(=O)O)c1-c1c(Cl)ccc2[nH]ccc12 [compound 185] | < 20 µM
CCc1c[nH]c2cc(OC)cc(-c3c(C(=O)O)[nH]c(-c4cc(F)cc5[nH]ccc45)c3C(C)C)c12 [compound 186] | < 20 µM
CC(C)c1c(-c2cc(F)cc3[nH]ccc23)[nH]c(C(=O)O)c1-c1cccc2[nH]cc(CCO)c12 [compound 187] | < 20 µM
CC(C)CCc1c[nH]c2cccc(-c3c(C(=O)O)[nH]c(-c4cc(F)cc5[nH]ccc45)c3C(C)C)c12 [compound 188] | < 20 µM
CC(C)c1c(-c2cc(F)cc3[nH]ccc23)[nH]c(C(=O)O)c1-c1cccc2[nH]c(CO)cc12 [compound 189] | < 20 µM
CC(C)c1c(-c2cc(F)cc3[nH]ccc23)[nH]c(C(=O)O)c1-c1cccc2[nH]c(C(N)=O)cc12 [compound 190] | < 20 µM
CC(C)c1c(-c2cc(F)cc3[nH]ccc23)[nH]c(C(N)=O)c1-c1cccc2[nH]c(C(=O)O)cc12 [compound 191] | < 20 µM
COc1cc(-c2c(C(=O)O)[nH]c(-c3cc(F)cc4[nH]ccc34)c2C(C)C)c2cc(CO)[nH]c2c1 [compound 192] | < 20 µM
COc1cc(-c2c(C(=O)O)[nH]c(-c3cc(F)cc4[nH]ccc34)c2C(C)C)c2cc(C)[nH]c2c1 [compound 193] | < 20 µM
CC(C)c1c(-c2cc(F)cc3[nH]ccc23)[nH]c(C(=O)O)c1-c1cccc2[nH]c(-c3nnn[nH]3)cc12 [compound 194] | < 20 µM

SMILES | Kd
CCC(C)c1c(-c2cc(F)cc3[nH]ccc23)[nH]c(C(=O)O)c1-c1cc(OC)cc2[nH]c(CO)cc12 (stereo not shown) [compound 195] | < 20 µM
CC(C)CCOc1cc(-c2c(C(=O)O)[nH]c(-c3cc(F)cc4[nH]ccc34)c2C(C)C)c2cc[nH]c2c1 [compound 196] | < 20 µM
CC(C)c1c(-c2cc(F)cc3[nH]ccc23)[nH]c(C(=O)O)c1-c1cc(C(=O)O)cc2[nH]ccc12 [compound 197] | < 20 µM
CC(C)c1c(-c2cc(F)cc3[nH]ccc23)[nH]c(C(=O)O)c1-c1cc(C(=O)N2CCCC2)cc2[nH]ccc12 [compound 198] | < 20 µM
CC(C)c1c(-c2cc(F)cc3[nH]ccc23)[nH]c(C(=O)O)c1-c1cc(C(=O)NCC2CC2)cc2[nH]ccc12 [compound 199] | < 20 µM
CC(C)c1c(-c2cc(F)cc3[nH]ccc23)[nH]c(C(=O)O)c1-c1cc(C(=O)NCc2nccs2)cc2[nH]ccc12 [compound 200] | < 20 µM
CC(C)c1c(-c2cc(F)cc3[nH]ccc23)[nH]c(C(=O)O)c1-c1cc(Oc2nccs2)cc2[nH]ccc12 [compound 201] | < 20 µM
CC(C)Cc1cc2c(-c3c(C(=O)O)[nH]c(-c4cc(F)cc5[nH]ccc45)c3C(C)C)cccc2[nH]1 [compound 202] | < 20 µM
CC(C)c1c(-c2cc(F)cc3[nH]ccc23)[nH]c(C(=O)O)c1-c1c[nH]c2ccccc12 [compound 203, 5-(6-fluoro-1H-indol-4-yl)-3-(1H-indol-3-yl)-4-isopropyl-1H-pyrrole-2-carboxylic acid] | < 20 µM
CC(C)c1c(-c2cc(F)cc3[nH]ccc23)[nH]c(C(=O)O)c1-c1cccc2ncsc12 [compound 204] | < 20 µM
CC(C)c1c(-c2cc(F)cc3[nH]ccc23)[nH]c(C(=O)O)c1-c1cccc2ncoc12 [compound 205] | < 20 µM
CC(C)c1c(-c2cc(F)cc3[nH]ccc23)[nH]c(C(=O)O)c1-c1cccc2nc[nH]c12 [compound 206] | < 20 µM
Cc1cc2c(-c3c(C(=O)O)[nH]c(-c4cc(F)cc5[nH]ccc45)c3C(C)C)ccnc2[nH]1 [compound 207] | < 20 µM
Cc1c[nH]c2nccc(-c3c(C(=O)O)[nH]c(-c4cc(F)cc5[nH]ccc45)c3C(C)C)c12 [compound 208] | < 20 µM
Cc1cnc2[nH]ccc2c1-c1c(C(=O)O)[nH]c(-c2cc(F)cc3[nH]ccc23)c1C(C)C [compound 209] | < 20 µM
CC(C)c1c(-c2cc(F)cc3[nH]ccc23)[nH]c(C(=O)O)c1-c1cccc2[nH]c3ccccc3c12 [compound 210] | < 20 µM
CC(C)c1c(-c2cc(F)cc3[nH]ccc23)[nH]c(C(=O)O)c1-c1cccc2[nH]c3c(c12)CCCC3=O [compound 211] | < 20 µM
CC(C)c1c(-c2cc(F)cc3[nH]ccc23)[nH]c(C(=O)O)c1-c1cccc2[nH]c3c(c12)CCC3 [compound 212] | < 20 µM
CC(C)c1c(-c2cc(F)cc3[nH]ccc23)[nH]c(C(=O)O)c1-c1ccc2c3c1ccn3CCO2 [compound 213] | < 20 µM

Continued, values first:

Kd | SMILES
< 20 µM | CC(C)c1c(-c2cccc3c2ccn3N)[nH]c(C(=O)O)c1-c1cccc2[nH]ccc12 [compound 214]
< 20 µM | CC(C)c1c(-c2cc(F)cc3[nH]ccc23)[nH]c(CC(=O)O)c1-c1cccc2[nH]ccc12 [compound 215]
< 20 µM | CC(C)c1c(-c2cc(F)cc3[nH]ccc23)[nH]c(CCC(=O)O)c1-c1cccc2[nH]ccc12 [compound 216]
< 20 µM | CC(C)c1c(-c2cc(F)cc3[nH]ccc23)[nH]c(S(N)(=O)=O)c1-c1cccc2[nH]ccc12 [compound 217]
< 20 µM | CC(C)c1c(-c2cc(F)cc3[nH]ccc23)[nH]c(S(C)(=O)=O)c1-c1cccc2[nH]ccc12 [compound 218]
< 20 µM | CC(C)c1c(-c2cc(F)cc3[nH]ccc23)[nH]c(CS(N)(=O)=O)c1-c1cccc2[nH]ccc12 [compound 219]
< 20 µM | CC(C)c1c(-c2cc(F)cc3[nH]ccc23)[nH]c(CS(C)(=O)=O)c1-c1cccc2[nH]ccc12 [compound 220]
< 20 µM | CC(C)c1c(-c2cc(F)cc3[nH]ccc23)[nH]c(CCS(N)(=O)=O)c1-c1cccc2[nH]ccc12 [compound 221]
< 20 µM | CC(C)c1c(-c2cccc3c(N)c[nH]c23)[nH]c(C(=O)O)c1-c1cccc2[nH]ccc12 [compound 223]
< 20 µM | CC(C)c1c(-c2cc(F)cc3[nH]ccc23)[nH]c(C(=O)O)c1-c1cccc2[nH]c(-c3nccs3)cc12 [compound 224]
< 20 µM | CC(C)c1c(-c2cc(F)cc3[nH]ccc23)[nH]c(C(=O)O)c1-c1cccc2[nH]c(-c3ccno3)cc12 [compound 225]
< 20 µM | CC(C)c1c(-c2cc(F)cc3[nH]ccc23)[nH]c(C(=O)O)c1-c1cccc2[nH]c(-c3cc(O)no3)cc12 [compound 226]
< 20 µM | CC(C)c1c(-c2cc(F)cc3[nH]ccc23)[nH]c(C(=O)O)c1-c1cccc2[nH]c(S(N)(=O)=O)cc12 [compound 227]
< 20 µM | CC(C)c1c(-c2cc(F)cc3[nH]ccc23)[nH]c(C(=O)O)c1-c1cccc2[nH]c(S(C)(=O)=O)cc12 [compound 228]
< 20 µM | CC(C)c1c(-c2cc(F)cc3[nH]ccc23)[nH]c(C(=O)O)c1-c1cccc2[nH]c(CS(N)(=O)=O)cc12 [compound 229]
< 20 µM | CC(C)c1c(-c2cc(F)cc3[nH]ccc23)[nH]c(C(=O)O)c1-c1cccc2[nH]c(CS(C)(=O)=O)cc12 [compound 230]
< 20 µM | CC(C)c1c(-c2cc(F)cc3[nH]ccc23)[nH]c(C(=O)O)c1-c1cccc2[nH]c(CCS(N)(=O)=O)cc12 [compound 231]
< 20 µM | CC(C)c1c(-c2cc(F)cc3[nH]ccc23)[nH]c(C(=O)O)c1-c1cccc2nc(NS(C)(=O)=O)sc12 [compound 232]
< 20 µM | CC(C)c1c(-c2cc(F)cc3[nH]ccc23)[nH]c(C(=O)O)c1-c1ccnc2[nH]c(-c3nccs3)cc12 [compound 233]

From patent US12466813B2, “PRC1 inhibitors and methods of treatment therewith” (The Regents of the University of Michigan, priority 2018, dated 2025)
